Experimental data as given in US9271929B2, “Block copolymers and uses thereof” (École Polytechnique Fédérale de Lausanne (EPFL), priority 2008, dated 2016).

Columns and labels:
[1] = Encapsulation efficiency of small molecule pharmaceutical agents using excipient formulations; assay type: physicochemical; details: PEG-PPS system
Description: Samples used in Table 2 were prepared as follows. 10 mg of PEG-PPS was added to a 1.5 mL centrifuge tube with either 90 mg of PEG600 or DBU-HCl, and 2 mg of either paclitaxel or dexamethasone. This was heated at 95° C. for 15 min and mixed thoroughly. After cooling to RT, the blend was slowly diluted to 1 mL with distilled water. The free pharmaceutical agent was pelleted via centrifugation for 10 minutes at 10,000 g, and the pellet and supernatant were separately freeze dried, and analyzed in THF via gel permeation chromatography. Dexamethasone and paclitaxel results were quantified using a standard curve.

[2] = test system: caco-2 cells (enterocytes) and lymphatic endothelial cells (LECs); experiment: Transport in coculture model of gut lymphatic uptake; assay type: in vitro ADME; details: caco-2/LEC coculture
Description: Given that PEG-PPS nanoparticles can survive harsh conditions such as gastric pH, we contemplated their transport in the gut lymphatics, determining their potential to be processed by mechanisms related to fat uptake in the gut. This was measured using a coculture model of caco-2 cells (enterocytes) and lymphatic endothelial cells (LECs), allowing full characterization of uptake, packaging, and transit (collectively referred to as transport). It was determined that the surface characteristics of PPS-based nanoparticles can be engineered to provide for effective transport: for example, particles on which about 10% of the terminal chain groups were substituted with a carboxyl functionality were transported at a level 5-fold higher than that of equivalent particles lacking a surface charge. Other surface charging moieties, such as sulfates and sulfones, are similarly effective after optimization.

Uptake / transport [2]	Compound	Encapsulation, method of the invention versus solvent dispersion [1]
–	C[C@@H]1[C@H](O)[C@@H](C)/C=C/C=C/C=C/C=C/C=C/C=C/C=C/[C@H](O[C@@H]2O[C@H](C)[C@@H](O)[C@H](N)[C@@H]2O)C[C@@H]2O[C@](O)(C[C@@H](O)C[C@@H](O)[C@H](O)CC[C@@H](O)C[C@@H](O)CC(=O)O[C@H]1C)C[C@H](O)[C@H]2C(=O)O [amphotericin B]	more efficiently encapsulated via solvent dispersion
–	CO[C@H]1C[C@@H]2CC[C@@H](C)[C@@](O)(O2)C(=O)C(=O)N2CCCC[C@H]2C(=O)O[C@H]([C@H](C)C[C@@H]2CC[C@@H](OCCO)[C@H](OC)C2)CC(=O)[C@H](C)/C=C(\C)[C@@H](O)[C@@H](OC)C(=O)[C@H](C)C[C@H](C)/C=C/C=C/C=C/1C [everolimus]	efficiently encapsulated
–	CC(=O)O[C@H]1C(=O)[C@@]2(C)[C@H]([C@H](OC(=O)c3ccccc3)[C@]3(O)C[C@H](OC(=O)[C@H](O)[C@@H](NC(=O)c4ccccc4)c4ccccc4)C(C)=C1C3(C)C)[C@]1(OC(C)=O)CO[C@@H]1C[C@@H]2O [paclitaxel]	more efficiently encapsulated via the method of the invention
not well transported	dextran	–
